According to article PMC7377239, “Cardiovascular Effects of Polychlorinated Biphenyls and Their Major Metabolites” (Environmental Health Perspectives, 2020):
Structures can show the parent of a compound that is named as a salt. Where two headings read alike, the source gives them in different places.

Assays:
HUVECs = assay: High-content imaging cytotoxicity in HUVECs, 24 h; format: cell-based, human; conditions: Homo sapiens, HUVEC, 24 h, HUVECs; for viability at 0.01 µM / activity at 0.01 µM / viability at 0.1 µM / activity at 0.1 µM / viability at 1 µM / activity at 1 µM / viability at 10 µM / activity at 10 µM / viability at 100 µM / activity at 100 µM: 0.00 µM = 100.00; for viability at 0.1 µM / activity at 0.1 µM: 0.10 µM; for minimal effective concentration: top concentration 100.00 µM
Outline: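 Confluent HUVEC monolayers, passages 1–5, received test chemicals for 24 h. Cytotoxicity was scored from triple-stain high-content images, with PODs defined by a one-SD deviation from 0.5% DMSO vehicle controls.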

[1] = test system: iCell cardiomyocytes (human iPSC-derived cardiomyocytes); assay: High-content imaging of cytotoxicity and mitochondrial integrity in iPSC-CMs; format: cell-based; conditions: Homo sapiens, Cardiomyocyte; for viability at 0.01 µM / activity at 0.01 µM / viability at 0.1 µM / activity at 0.1 µM / viability at 1 µM / activity at 1 µM / viability at 10 µM / activity at 10 µM / viability at 100 µM / activity at 100 µM: 0.00 µM = 100.00; for viability at 0.1 µM / activity at 0.1 µM: 0.10 µM
Outline: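 Cardiomyocytes grown on gelatinized 384-well plates received fresh medium on the experiment day and were then exposed to chemicals at 0.01–100μM. Nuclei and mitochondria were labeled with Hoechst 33342 and MitoTracker™ Orange, then fixed, and imaged on an ImageXpress® Micro Confocal system. Four-parameter logistic concentration–response fits in R, with a one-standard-deviation vehicle cutoff, gave point-of-departure values.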

[2] = 24 hr, read-out: huvec.cyto.24hr
[3] = 24 hr, read-out: huvec.mito.24hr
[4] = 24 hr, read-out: huvec.mitoint.24hr
[5] = 24 hr, read-out: huvec.nma.24hr
[6] = 24 hrs, read-out: huvec.tc.24hrs
[7] = 1.5 h, 90min, read-out: cm.cam.90min
[8] = 1.5 h, 90min, read-out: cm.mii.90min
[9] = 1.5 h, 90min, read-out: cm.mito.90min
[10] = 1.5 h, 90min, read-out: cm.tc.90min
[11] = 24 h, 24hrs, read-out: cm.cam.24hrs
[12] = 24 h, 24hrs, read-out: cm.mii.24hrs
[13] = 24 h, 24hrs, read-out: cm.mito.24hrs
[14] = 24 h, 24hrs, read-out: cm.tc.24hrs

Question: How did the viability at 0.01 µM (HUVECs; [2]) turn out when `O=S(=O)(O)Oc1cc(Cl)c(-c2cc(Cl)ccc2Cl)cc1Cl` [4-yl PCB 52 sulfate] was run?
Answer: The viability at 0.01 µM was 99.3%.

Question: And the activity at 0.01 µM (HUVECs; [3])?
Answer: The activity at 0.01 µM was 98.2%.

Question: And the activity at 0.01 µM (HUVECs; [4])?
Answer: The activity at 0.01 µM was 110%.

Question: And the activity at 0.01 µM (HUVECs; [5])?
Answer: The activity at 0.01 µM was 98.4%.

Question: What about the viability at 0.1 µM (HUVECs; [2]) of the same compound?
Answer: Its viability at 0.1 µM is 105%.

Question: And the activity at 0.1 µM (HUVECs; [3])?
Answer: The activity at 0.1 µM was 105%.

Question: And the activity at 0.1 µM (HUVECs; [4])?
Answer: Its activity at 0.1 µM is 113%.

Question: And the activity at 0.1 µM (HUVECs; [5])?
Answer: Its activity at 0.1 µM is 96.2%.

Question: What about the viability at 1 µM (HUVECs; [2]) of the same compound?
Answer: The viability at 1 µM was 93.5%.

Question: What about the activity at 1 µM (HUVECs; [3]) of the same compound?
Answer: The activity at 1 µM was 92.9%.

Question: And the activity at 1 µM (HUVECs; [4])?
Answer: Its activity at 1 µM is 107%.

Question: What about the activity at 1 µM (HUVECs; [5]) of the same compound?
Answer: The activity at 1 µM was 99.1%.

Question: And the viability at 10 µM (HUVECs; [2])?
Answer: The viability at 10 µM was 91.2%.

Question: And the activity at 10 µM (HUVECs; [3])?
Answer: Its activity at 10 µM is 89.3%.

Question: What about the activity at 10 µM (HUVECs; [4]) of the same compound?
Answer: The activity at 10 µM was 111%.

Question: And the activity at 10 µM (HUVECs; [5])?
Answer: The activity at 10 µM was 98.4%.

Question: What about the viability at 100 µM (HUVECs; [2]) of the same compound?
Answer: Its viability at 100 µM is 59.6%.

Question: What about the activity at 100 µM (HUVECs; [3]) of the same compound?
Answer: The activity at 100 µM was 61.8%.

Question: What about the activity at 100 µM (HUVECs; [4]) of the same compound?
Answer: The activity at 100 µM was 74.7%.

Question: And the activity at 100 µM (HUVECs; [5])?
Answer: The activity at 100 µM was 206%.

Question: What about the minimal effective concentration (HUVECs; 24 hr, read-out: huvec.cyto.24hr POD) of the same compound?
Answer: The minimal effective concentration was 5.38 µM.

Question: And the minimal effective concentration (HUVECs; 24 hr, read-out: huvec.mito.24hr POD)?
Answer: Its minimal effective concentration is 3.31 µM.

Question: And the minimal effective concentration (HUVECs; 24 hr, read-out: huvec.mitoint.24hr POD)?
Answer: Its minimal effective concentration is 61.2 µM.

Question: What about the minimal effective concentration (HUVECs; 24 hr, read-out: huvec.nma.24hr POD) of the same compound?
Answer: The minimal effective concentration was 33.9 µM.

Question: What about the viability at 0.01 µM (HUVECs; [6]) of the same compound?
Answer: Its viability at 0.01 µM is 99.3%.

Question: And the viability at 0.1 µM (HUVECs; [6])?
Answer: Its viability at 0.1 µM is 105%.

Question: What about the viability at 1 µM (HUVECs; [6]) of the same compound?
Answer: The viability at 1 µM was 93.5%.

Question: And the viability at 10 µM (HUVECs; [6])?
Answer: Its viability at 10 µM is 91.2%.

Question: What about the viability at 100 µM (HUVECs; [6]) of the same compound?
Answer: The viability at 100 µM was 61.8%.

Question: What about the minimal effective concentration (HUVECs; 24 hrs, read-out: huvec.tc.24hrs POD) of the same compound?
Answer: The minimal effective concentration was 5.38 µM.

Question: What about the viability at 0.01 µM [1, 7] of the same compound?
Answer: The viability at 0.01 µM was 106%.

Question: What about the activity at 0.01 µM [1, 8] of the same compound?
Answer: Its activity at 0.01 µM is 103%.

Question: What about the activity at 0.01 µM [1, 9] of the same compound?
Answer: The activity at 0.01 µM was 106%.

Question: And the viability at 0.01 µM [1, 10]?
Answer: The viability at 0.01 µM was 106%.

Question: What about the viability at 0.1 µM [1, 7] of the same compound?
Answer: Its viability at 0.1 µM is 93.3%.

Question: What about the activity at 0.1 µM [1, 8] of the same compound?
Answer: The activity at 0.1 µM was 129%.

Question: And the activity at 0.1 µM [1, 9]?
Answer: Its activity at 0.1 µM is 92.9%.

Question: And the viability at 0.1 µM [1, 10]?
Answer: The viability at 0.1 µM was 92.8%.

Question: And the viability at 1 µM [1, 7]?
Answer: Its viability at 1 µM is 98.7%.

Question: And the activity at 1 µM [1, 8]?
Answer: The activity at 1 µM was 130%.

Question: And the activity at 1 µM [1, 9]?
Answer: Its activity at 1 µM is 98.5%.

Question: And the viability at 1 µM [1, 10]?
Answer: Its viability at 1 µM is 98.4%.

Question: And the viability at 10 µM [1, 7]?
Answer: The viability at 10 µM was 97.1%.

Question: What about the activity at 10 µM [1, 8] of the same compound?
Answer: The activity at 10 µM was 109%.

Question: And the activity at 10 µM [1, 9]?
Answer: The activity at 10 µM was 96.8%.

Question: What about the viability at 10 µM [1, 10] of the same compound?
Answer: Its viability at 10 µM is 97.1%.

Question: And the viability at 100 µM [1, 7]?
Answer: The viability at 100 µM was 0.07%.

Question: What about the activity at 100 µM [1, 8] of the same compound?
Answer: Its activity at 100 µM is 31.5%.

Question: What about the activity at 100 µM [1, 9] of the same compound?
Answer: The activity at 100 µM was 0.16%.

Question: What about the viability at 100 µM [1, 10] of the same compound?
Answer: The viability at 100 µM was 0.16%.

Question: And the minimal effective concentration ([1]; 1.5 h, 90min, read-out: cm.cam.90min POD)?
Answer: Its minimal effective concentration is 10.8 µM.

Question: And the minimal effective concentration ([1]; 1.5 h, 90min, read-out: cm.mii.90min POD)?
Answer: Its minimal effective concentration is 41.2 µM.

Question: What about the minimal effective concentration ([1]; 1.5 h, 90min, read-out: cm.mito.90min POD) of the same compound?
Answer: The minimal effective concentration was 10.6 µM.

Question: What about the minimal effective concentration ([1]; 1.5 h, 90min, read-out: cm.tc.90min POD) of the same compound?
Answer: The minimal effective concentration was 10.8 µM.

Question: And the viability at 0.01 µM [1, 11]?
Answer: Its viability at 0.01 µM is 95.3%.

Question: What about the activity at 0.01 µM [1, 12] of the same compound?
Answer: Its activity at 0.01 µM is 98.6%.

Question: What about the activity at 0.01 µM [1, 13] of the same compound?
Answer: The activity at 0.01 µM was 93.3%.

Question: And the viability at 0.01 µM [1, 14]?
Answer: Its viability at 0.01 µM is 96.5%.

Question: What about the viability at 0.1 µM [1, 11] of the same compound?
Answer: The viability at 0.1 µM was 103%.

Question: What about the activity at 0.1 µM [1, 12] of the same compound?
Answer: Its activity at 0.1 µM is 122%.

Question: What about the activity at 0.1 µM [1, 13] of the same compound?
Answer: The activity at 0.1 µM was 104%.

Question: What about the viability at 0.1 µM [1, 14] of the same compound?
Answer: The viability at 0.1 µM was 104%.

Question: What about the viability at 1 µM [1, 11] of the same compound?
Answer: The viability at 1 µM was 104%.

Question: And the activity at 1 µM [1, 12]?
Answer: The activity at 1 µM was 111%.

Question: What about the activity at 1 µM [1, 13] of the same compound?
Answer: Its activity at 1 µM is 104%.

Question: What about the viability at 1 µM [1, 14] of the same compound?
Answer: Its viability at 1 µM is 104%.

Question: And the viability at 10 µM [1, 11]?
Answer: Its viability at 10 µM is 91.5%.

Question: And the activity at 10 µM [1, 12]?
Answer: Its activity at 10 µM is 107%.

Question: And the activity at 10 µM [1, 13]?
Answer: The activity at 10 µM was 89.6%.

Question: What about the viability at 10 µM [1, 14] of the same compound?
Answer: The viability at 10 µM was 91.7%.

Question: And the viability at 100 µM [1, 11]?
Answer: The viability at 100 µM was 1.67%.

Question: And the activity at 100 µM [1, 12]?
Answer: Its activity at 100 µM is 12.2%.

Question: What about the activity at 100 µM [1, 13] of the same compound?
Answer: The activity at 100 µM was 0.34%.

Question: What about the viability at 100 µM [1, 14] of the same compound?
Answer: Its viability at 100 µM is 3.82%.

Question: And the minimal effective concentration ([1]; 24 h, read-out: cm.cam.24hrs POD)?
Answer: The minimal effective concentration was 8.2 µM.

Question: And the minimal effective concentration ([1]; 24 h, read-out: cm.mii.24hrs POD)?
Answer: Its minimal effective concentration is 44.6 µM.

Question: And the minimal effective concentration ([1]; 24 h, read-out: cm.mito.24hrs POD)?
Answer: Its minimal effective concentration is 8.28 µM.

Question: And the minimal effective concentration ([1]; 24 h, read-out: cm.tc.24hrs POD)?
Answer: The minimal effective concentration was 8.44 µM.
